# From the supplement of paper PMC11208160
# Assay: recombinant barcode read abundance after kanamycin selection (control-corrected) (log10(CPM+1)); higher = more efficient recombination; sequences stand for … in AGTGCAGAGAAAATCGGCCAGTTTTCTCTGCCTGCAGTCCGCATGCCGT…AGATTTATGCAGCGGACTGCCTTTCTCCCAAAGTGATAAACCGGACAGTATCATGGACCGGTTTTCCCGGTAATCCGTATTTGCAAGGTTGGTTTCACT; site = the 11-nt target
# Summary of the method: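 Targets were screened in pooled form in E. coli against IS621 bridge RNA target-binding loops. Recombination efficiency is based on barcode counts at recombinant junctions in counts per million, averaged and corrected for the control. Numbers are shown as log10(CPM+1), with duplicate plates on chloramphenicol/ampicillin LB agar (control) or chloramphenicol/ampicillin/kanamycin with 0.1 mM IPTG.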
# 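Note: IS621 recombinase and bridge RNA in Escherichia coli cells.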
row,Sequence,recombinant barcode read abundance (log10)
1,GAGATGTCTTGGGTTCTAACCTGTTGCCT (site GTGATGTCTAG),0.577
2,AGGTTCCCTTGGGTTCTAACCTGTTGCTG (site AGGTTCCCTCA),2.46
3,GAATCTACTTGGGTTCTAACCTGTTGCTT (site GAGTCTACTAA),0.122
4,AGCGGCCCTTGGGTTCTAACCTGTTGCCT (site AGCGGACCTAG),0.466
5,TGCCTGCCTTGGGTTCTAACCTGTTGCCT (site AAGACAACTCC),0.06
6,TAGGCGACTTGGGTTCTAACCTGTTGCTA (site TAGGCGACTTA),0.454
7,GCAGGTCCTTGGGTTCTAACCTGTTGCCT (site GCGGGTCCTAG),0.744
8,ACCGTGACTTGGGTTCTAACCTGTTGCCT (site ACCGCGACTAG),0.272
9,GCACGAACTTGGGTTCTAACCTGTTGCCT (site GCTCGAACTAG),0.0171
10,AGGAAGACTTGGGTTCTAACCTGTTGCCA (site AGGCAGACTTG),0.0465
11,ACTTCCACTTGGGTTCTAACCTGTTGCCT (site CCTTCCACTAG),0.0483
12,GAACGCTCTTGGGTTCTAACCTGTTGCTT (site TGTAAGACTCT),0.225
13,TTGCCTTCTTGGGTTCTAACCTGTTGCCT (site TAGCCTTCTAG),0.106
14,TACCTACCTTGGGTTCTAACCTGTTGCGA (site ATAACTACTAA),0.0536
15,GCTCAGACTTGGGTTCTAACCTGTTGCCT (site GCTCAGCCTAG),0.0925
16,GGTCGGACTTGGGTTCTAACCTGTTGCGT (site GGAGGGACTAC),0.0819
17,CTAGACTCTTGGGTTCTAACCTGTTGCTT (site CTAGACTCTTA),0.261
18,TAGAAGGCTTGGGTTCTAACCTGTTGCCT (site TAGAAGGCTAA),0.139
19,TACGGGGCTTGGGTTCTAACCTGTTGCCT (site TACGCGGCTAG),0.139
20,CGAAGGACTTGGGTTCTAACCTGTTGCTA (site CTAAGGACTTA),0.231
21,ACATTGTCTTGGGTTCTAACCTGTTGCGG (site ACACTGTCTCC),0.236
22,GAGCCTACTTGGGTTCTAACCTGTTGCTA (site AAGCCTACTTA),0.25

row,Sequence,recombinant barcode read abundance (log10)
1,CACTTGGCTTGGGTTCTAACCTGTTGCCT (site CACTTGTCTAG),0.0944
2,AGATTGCCTTGGGTTCTAACCTGTTGCCT (site AGATTGCCTAG),0.489
3,CGTACCTCTTGGGTTCTAACCTGTTGCTC (site CGTACCTCTTA),0.0752
4,TGGAGCACTTGGGTTCTAACCTGTTGCCT (site TGGATCACTAG),0.0861
5,TCTTGGACTTGGGTTCTAACCTGTTGCTC (site TCTTGGACTGA),0.165
6,CGTGGTCCTTGGGTTCTAACCTGTTGCAT (site CGTGGTCCTAA),0.414
7,ACGGGTGCTTGGGTTCTAACCTGTTGCCT (site ACGGGTGCTAG),1.86
8,CCGAATTCTTGGGTTCTAACCTGTTGCTT (site CCGAATTCTAA),0.113
9,TGTAGAGCTTGGGTTCTAACCTGTTGCCG (site TGTGGAGCTCG),0
10,AAGCTCCCTTGGGTTCTAACCTGTTGCCT (site AAGCTCCCTAG),1.6
11,TATAGGGCTTGGGTTCTAACCTGTTGCCG (site TATAGGGCTCG),0.402
12,ATAGGGACTTGGGTTCTAACCTGTTGCTA (site ATATGGACTTA),0.759
13,AGGGATCCTTGGGTTCTAACCTGTTGCGT (site ATGGATCCTAC),1.29
14,CTGTTCCCTTGGGTTCTAACCTGTTGCGG (site CTGGTCCCTCC),0.129
15,CATCGGGCTTGGGTTCTAACCTGTTGCAG (site CCTCGGGCTCT),0.0832
16,TGATAGACTTGGGTTCTAACCTGTTGCAC (site TGATAGACTGT),1.38
17,GCACGAACTTGGGTTCTAACCTGTTGCCT (site GCACGAACTAG),1
18,GCACTACCTTGGGTTCTAACCTGTTGCCT (site GCACTACCTAG),1.37
19,CGTGGTCCTTGGGTTCTAACCTGTTGCAT (site CGTGGTCCTAG),0.398
20,ACACGCCCTTGGGTTCTAACCTGTTGCAC (site ACACGCCCTGT),0.333
21,CTTGCTCCTTGGGTTCTAACCTGTTGCAT (site CTTGCTCCTAT),0.227
22,CACGCAACTTGGGTTCTAACCTGTTGCTT (site CACGCAACTAA),0.476

row,Sequence,recombinant barcode read abundance (log10)
1,TCTAAGTCTTGGGTTCTAACCTGTTGCCG (site TCTAAGTCTTG),0.483
2,CTAGACTCTTGGGTTCTAACCTGTTGCTT (site CTAGACTCTAA),2.89
3,ACCCTGTCTTGGGTTCTAACCTGTTGCCG (site ACCCTGTCTCG),2.44
4,CCTCATACTTGGGTTCTAACCTGTTGCCA (site GGAGTACCTAT),0.02
5,GACCAGCCTTGGGTTCTAACCTGTTGCCT (site GACCAGCCTAC),0.0691
6,TCATAGCCTTGGGTTCTAACCTGTTGCTG (site TCATAGCCTCA),0.62
7,GTCGCGGCTTGGGTTCTAACCTGTTGCCT (site GTCGCGGCTAG),0.418
8,CTAGGAACTTGGGTTCTAACCTGTTGCTA (site CTAGGAACTTA),0.635
9,AAGTCCACTTGGGTTCTAACCTGTTGCTT (site AAGTCCACTAA),0.856
10,ATAAGCTCTTGGGTTCTAACCTGTTGCCG (site GAGCAACCTAA),0.0688
11,GCGTGGACTTGGGTTCTAACCTGTTGCCT (site GCGTGGACTAG),1.61
12,CAAGTCGCTTGGGTTCTAACCTGTTGCCT (site CAAGTAGCTAG),0.219
13,CTCCGCTCTTGGGTTCTAACCTGTTGCCT (site GTCCGCTCTAG),0.0686
14,AACAGGTCTTGGGTTCTAACCTGTTGCCT (site ATCAGGTCTAG),0.0485
15,ACGGCTACTTGGGTTCTAACCTGTTGCTT (site GGTTAGTCTCG),0.0618
16,ACTCTAACTTGGGTTCTAACCTGTTGCTT (site ACTCTAACTAA),0.121
17,AATGTGTCTTGGGTTCTAACCTGTTGCCT (site AAAGTGTCTAG),0.663
18,AGTATGTCTTGGGTTCTAACCTGTTGCCT (site GGTATGTCTAG),0.0305
19,AAGATAGCTTGGGTTCTAACCTGTTGCCT (site AAGAGAGCTAG),0.164
20,GTCGGGACTTGGGTTCTAACCTGTTGCCT (site GTCGGAACTAG),0.863
21,TTGGCAGCTTGGGTTCTAACCTGTTGCCT (site TTGGAAGCTAG),0.061
22,CCAAGGGCTTGGGTTCTAACCTGTTGCGG (site CCAAGGGCTCG),0.094

row,Sequence,recombinant barcode read abundance (log10)
1,CGGGCGTCTTGGGTTCTAACCTGTTGCTA (site ATTCGAGCTAT),0.116
2,GATACTGCTTGGGTTCTAACCTGTTGCCT (site GACACTGCTAG),0.434
3,TTCTATGCTTGGGTTCTAACCTGTTGCCT (site TCCTGTGCTAG),0.24
4,AGGTGTCCTTGGGTTCTAACCTGTTGCGA (site AGGTGTCCTTC),2.36
5,GGTCGTACTTGGGTTCTAACCTGTTGCCT (site CCGTTGTCTTA),0.177
6,CGTCGACCTTGGGTTCTAACCTGTTGCAT (site ACCTCTTCTTA),0.0126
7,CATGATGCTTGGGTTCTAACCTGTTGCCT (site CAGGATGCTAG),0.00956
8,GCCTGCCCTTGGGTTCTAACCTGTTGCCT (site GGCTGCCCTAG),0.0211
9,TAACGATCTTGGGTTCTAACCTGTTGCAT (site TAACGGTCTAA),0.0405
10,CCTCGATCTTGGGTTCTAACCTGTTGCAT (site CCTCGATCTAT),1.59
11,CTATGTGCTTGGGTTCTAACCTGTTGCAT (site CTATGTGCTAA),0.295
12,GGACCTCCTTGGGTTCTAACCTGTTGCGT (site GGACCTCCTAT),1.71
13,TGCGTCCCTTGGGTTCTAACCTGTTGCCT (site TGTGTCCCTAG),0.0158
14,TAGGAAACTTGGGTTCTAACCTGTTGCGT (site TAGGACACTAC),0.0791
15,GACCGCTCTTGGGTTCTAACCTGTTGCTA (site GTCAGCTCTTA),0.37
16,AGAATATCTTGGGTTCTAACCTGTTGCCT (site AGATTATCTAG),0.193
17,TACTAAGCTTGGGTTCTAACCTGTTGCAT (site TACTAAGCTAA),0.149
18,TCACGTGCTTGGGTTCTAACCTGTTGCCT (site TCACGTGCTAG),0.563
19,CGGAAGTCTTGGGTTCTAACCTGTTGCCT (site CGGAAGACTAG),0.0548
20,CGAGAGACTTGGGTTCTAACCTGTTGCTT (site CAAGAGTCTAA),0.0807
